Values of other authors, collected in patent US20180148480A1, “[…] ENHANCEMENT OF THE T-CELL ARM[…] AN ANTI-CANCER THERAPY” (THE JOHNS HOPKINS UNIVERSITY, priority 2015, published 2018).

How the values were obtained:
animals = details: single intravenous dose; kills 100% of animals within 24 hrs

wild-type PA
LD50 concentration (TSU (bladder)): ≤ 50 pM
LD50 concentration (PC3): ≤ 50 pM
LD50 concentration (CWR22Rv1): ≤ 50 pM
LD50 concentration (DU145): ≤ 50 pM
LD50 concentration (LNCaP): ≤ 50 pM
LD50 concentration (SN12C (renal)): ≤ 50 pM
LD50 concentration (TT (thyroid)): ≤ 50 pM
LD100 (animals): 0.1 µg
LD50 concentration (LAPC-4): ≤ 50 pM
